Measurements from article PMC9520775, “Everolimus pharmacokinetics and exposure-response relationship in Japanese patients with advanced breast cancer” (Frontiers in Pharmacology, 2022).

What was measured:
[1] = tested on: patients with advanced or metastatic breast cancer; experiment: Progression-free survival (Kaplan-Meier, log-rank); assay type: in vivo, human; conditions: for PFS: single patient
From the text: This was a prospective, observational PK study. Patients with advanced or metastatic breast cancer who received everolimus between November 2015 and November 2018 at Kobe City Medical Center General Hospital were enrolled in this study. The main inclusion criteria included the following: age ≥20 years; Eastern Cooperative Oncology Group (ECOG) performance status (PS): 0 or 1; and adequate bone marrow, liver, and renal function. The main exclusion criteria were interstitial pneumonia or pulmonary fibrosis, HBsAg positive, and psychiatric or psychological symptoms that made it difficult to participate in the study. Every participant provided written informed consent. This study was conducted in accordance with the Declaration of Helsinki and approved by the Institutional Review Board, under Approval Number zn151103.
Statistical differences in everolimus trough concentrations, doses and body weights between patient cohorts were assessed using the Mann–Whitney test. Progression-free survival (PFS) was assessed using the Kaplan-Meier method and the log-rank test. All statistical analyses were performed using GraphPad Prism version 7.03 (San Diego, CA). p < 0.05 was considered statistically significant.

[2] = design: method as in de Wit et al. (2016); conditions: ref de Wit et al. (2016), cited from earlier work
breast cancer patients = tested on: breast cancer patients; design: method as in Ito et al., 2015; conditions: Japanese population in the BOLERO-2 study; ref Ito et al., 2015; cited from earlier work
[3] = design: method as in Miesner et al. (2016); conditions: kidney cancer patient, 10 mg everolimus, concomitant clarithromycin 500 mg twice daily for 12 days, acute renal failure; ref Miesner et al. (2016); cited from earlier work

For `CO[C@H]1C[C@@H]2CC[C@@H](C)[C@@](O)(O2)C(=O)C(=O)N2CCCC[C@H]2C(=O)O[C@H]([C@H](C)C[C@@H]2CC[C@@H](OCCO)[C@H](OC)C2)CC(=O)[C@H](C)/C=C(\C)[C@@H](O)[C@@H](OC)C(=O)[C@H](C)C[C@H](C)/C=C/C=C/C=C/1C` [everolimus], the PFS ([1]; case Figure 3A) was 8.5 months, the PFS ([1]; case Figure 3B) was 13.8 months and the trough concentration to which adjusting may significantly prolong PFS ([1]; discussion statement) was 10 to 20 ng/mL. The “trough concentration group with significantly longer PFS” value ([1]; groups <10 (n = 9), 10–20 (n = 6), >20 ng/ml (n = 3), log-rank p = 0.0078) was 10 to 20 ng/mL, the “number of patients with PFS more than 8.5 months” value ([1]; of 18 patients) was 14 and the “PFS, range” value ([1]; study population, n = 18) was 1.7–55.8 months. The “median PFS” value ([1]; study population, n = 18, with exemestane) was 13.7 months, the “absorption rate constant (Ka)” value ([2]; fixed for all analyses) was 0.643 h⁻¹ and the “clearance (CL), population prior” value ([2]; two-compartment model, patients with thyroid cancer) was 20.3 L/h. The “median PFS” value (breast cancer patients) was 8.5 months and the “trough level of everolimus” value [3] was 110 ng/mL.
